# From patent US6759064B2, “Compositions based on vanilloid-catechin synergies for prevention and treatment of cancer” (Purdue Research Foundation, priority 2001, dated 2004)
# Counter-ions that a name gives are not always drawn. Like-named read-outs stand apart in the source and are kept apart here.
# How the values were obtained:
# HeLa cells = assay: growth of HeLa cells in culture, 96-well plate assay; format: cell-based, human; details: for A580, % of no addition / Growth, % of control: HeLa; for Growth, % of control: no source
# cancer cells = assay: cancer cell growth and apoptosis under EGCg; format: cell-based
# [1] = clearance of EGCg from the blood; details: in vivo
# 4T1 cells = assay: growth of 4T1 cells over 48 h, 96-well plate assay; format: cell-based, mouse; details: 4T1, 48 h
# Protocol: (§1) HeLa (ATCC CCL2) cells were grown in 150 cm^2 flasks in Minimal Essential Medium (Gibco), pH 7.4, at 37° C. with 10% bovine calf serum (heat inactivated, plus 50 mg/l gentamicin sulfate (Sigma). A mouse mammary tumor subpopulation line 4T1 arising from a BALB/cfC3H mouse (Miller et al., 1981, Brit. J. Cancer 56:561 and Miller et al., 1990, Invasion Metastasis 10:101) was grown in DME 10, Dulbecco's modified Eagle's medium supplemented with 5% fetal calf serum, 5% newborn calf serum, 1 mM mixed non-essential amino acids, 2 mM L-glutamine, penicillin (100 units/ml), and streptomycin (100 μg/ml).
# Cells were quantitated using a standard cytotoxicity assay (Matthews & Neale, 1987, In Lymphokines and Interferons. A Practical Approach. Clemens, M. J. et al., eds. IRL Press, Oxford, p. 221).
# [2] = target: T1, NADH oxidase (tNOX) of 4T1 cells (Mus musculus, UniProt Q8R0Z2); assay: inhibition of NADH oxidase (tNOX) activity of 4T1 cells; format: biochemical
# T1 construct: endogenous in cells; host or cells: 4T1 mouse mammary tumor cells
# T1 sequence (Q8R0Z2 1-598): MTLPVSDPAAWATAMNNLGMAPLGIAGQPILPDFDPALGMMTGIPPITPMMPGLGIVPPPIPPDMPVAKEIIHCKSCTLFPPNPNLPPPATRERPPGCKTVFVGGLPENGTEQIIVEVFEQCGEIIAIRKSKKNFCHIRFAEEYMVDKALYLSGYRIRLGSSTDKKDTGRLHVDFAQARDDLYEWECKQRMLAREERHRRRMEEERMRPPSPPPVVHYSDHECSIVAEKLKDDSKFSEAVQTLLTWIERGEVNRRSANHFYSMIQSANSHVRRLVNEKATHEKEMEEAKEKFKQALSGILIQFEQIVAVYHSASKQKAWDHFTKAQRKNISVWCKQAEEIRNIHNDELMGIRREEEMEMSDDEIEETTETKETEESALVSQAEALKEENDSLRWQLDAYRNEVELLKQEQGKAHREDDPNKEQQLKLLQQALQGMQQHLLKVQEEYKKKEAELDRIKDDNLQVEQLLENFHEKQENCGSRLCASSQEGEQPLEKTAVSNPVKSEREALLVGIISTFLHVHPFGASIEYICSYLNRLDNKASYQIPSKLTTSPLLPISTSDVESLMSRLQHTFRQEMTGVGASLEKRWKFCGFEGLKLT
# Protocol: as §1
# (§2) NADH oxidase activity may be monitored and measured by virtue of the decrease in absorbance at 340 nm wavelength. A millimolar extinction coefficient of 6.22 for NADH was used to calculate rates of NADH oxidation. Additional tests are such as those described by Morre, 1994, Bioenerg. Biomemb. 26:421, and Chueh et al., 1997, J. Biol. Chem. 272:11221, which are incorporated by reference in their entireties.
# [3] = target: T2, NADH oxidase (tNOX) of HeLa cells (Homo sapiens, UniProt Q16206); assay: inhibition of NADH oxidase (tNOX) activity of HeLa cells; format: biochemical
# T2 construct: endogenous in cells; host or cells: HeLa (ATCC CCL2)
# T2 sequence (Q16206 1-610): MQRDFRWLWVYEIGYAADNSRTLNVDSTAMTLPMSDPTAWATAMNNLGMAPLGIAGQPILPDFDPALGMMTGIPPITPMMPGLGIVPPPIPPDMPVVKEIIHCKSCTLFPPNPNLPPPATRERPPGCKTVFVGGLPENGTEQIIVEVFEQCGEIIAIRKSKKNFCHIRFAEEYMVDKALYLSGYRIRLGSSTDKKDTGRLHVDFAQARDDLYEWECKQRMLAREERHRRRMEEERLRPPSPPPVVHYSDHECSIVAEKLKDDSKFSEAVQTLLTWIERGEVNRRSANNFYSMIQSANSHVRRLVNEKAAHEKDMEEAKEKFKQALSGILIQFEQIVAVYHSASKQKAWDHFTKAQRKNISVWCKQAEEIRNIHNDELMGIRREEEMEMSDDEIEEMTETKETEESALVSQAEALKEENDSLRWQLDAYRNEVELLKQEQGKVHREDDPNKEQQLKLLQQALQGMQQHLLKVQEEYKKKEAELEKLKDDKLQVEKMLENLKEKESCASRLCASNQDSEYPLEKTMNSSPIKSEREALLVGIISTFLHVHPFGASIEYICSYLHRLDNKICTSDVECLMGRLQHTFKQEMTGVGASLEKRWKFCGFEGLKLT
# Protocol: as §1, §2
# [4] = tested on: 4T1 mouse mammary carcinoma cells; assay: tumor weight and metastases of 4T1 mouse mammary carcinoma cells in BALBc mice; format: in vivo
# Protocol: Cells from monolayer culture were suspended in Hank's buffered salt solution and 1×10^6 cells were injected into the subscapular region in a volume of 0.1 ml.
# Anti-metastatic drugs were administered in the dose/injection indicated intratumoral in 0.1 ml total volume on alternate days beginning after palpable tumor masses were discernible (approximately 7 days post implantation) for a total of 6 injections. Appropriate solvent and sham-injected controls were included. At […] post tumor implantations, mice were sacrificed and major organs (e.g., lung, liver, lymph nodes) were examined for evidence of metastases.
# NADH oxidase = target: T3, NADH oxidase (Homo sapiens, UniProt Q16206); assay: NADH oxidase assay, genestein interactions (data not shown); format: biochemical
# T3 sequence (Q16206 1-610): T2 sequence (Q16206 1-610)
# Excerpt: as §2
molecule,measurement,setting,value
(−)-epigallocatechin gallate [EGCg],inhibition of growth of HeLa cells,HeLa cells; EGCg at 1 μM,12%
same,"A580, % of no addition","HeLa cells; 48 h, final concentration 20 μM",90 % of no addition
same,"Growth, % of control","HeLa cells; 48 h, EGCg 1:150",112 % of control
same,"Growth, % of control","HeLa cells; 72 h, EGCg 1:150",97 % of control
same,growth of cancer cells,cancer cells; challenged with 10^−7 M EGCg every two hours during the day,inhibited
same,reversibility of the effect on cancer cell growth,"cancer cells; if the EGCg is removed, cancer cells resume normal rates of growth",reversible
same,clearance from the blood,[1],rapidly cleared from the blood and metabolized
same,"A580, % of no addition",4T1 cells; final concentration 20 μM,58 % of no addition
same,EC50,"[2]; 4T1 cells grown in culture (Table 3), read-out: EC50(M), inhibition of tNOX activity",1e-08 M
same,EC50,"[3]; HeLa cells grown in culture (Table 3), read-out: EC50(M), inhibition of tNOX activity",1e-07 M
"COc1cc(CN)ccc1O [Vanillylamine, 4-hydroxy-3-methoxybenzy amine hydrochloride]","A580, % of no addition","HeLa cells; 48 h, final concentration 1 μM",128 % of no addition
same,"Growth, % of control","HeLa cells; 48 h, vanillylamine 1:150",130 % of control
same,"Growth, % of control","HeLa cells; 72 h, vanillylamine 1:150",120 % of control
same,Tumor weight,"[4]; BALBc mice, intratumoral on alternate days, 6 injections, sacrifice 15 days post implantation",0.50 ± 0.20
same,neurological discomfort and possible toxicity,[4]; mouse model,without the neurological discomfort and possible toxicity
same,prevention of metastasis in a mouse model,[4]; mouse model,effective
same,Tumor growth and metastatic spread,[4]; three animals,prevented
same,"A580, % of no addition",4T1 cells; final concentration 1 μM,144 % of no addition
same,EC50,"[2]; 4T1, 1.5 × 10^6 cells (Table 2), read-out: EC50(M), inhibition of NADH oxidase",5e-09 M
same,EC50,"[3]; HeLa, 1.5 × 10^6 cells (Table 2), read-out: EC50(M), inhibition of NADH oxidase",1e-09 M
O=c1c(-c2ccc(O)cc2)coc2cc(O)cc(O)c12 [genestein],growth of HeLa cells,HeLa cells; data not shown,inhibited
same,interactions of genestein with EC or Tegreen,HeLa cells; data not shown,additive
same,inhibition of growth of HeLa cells,HeLa cells; genestein at 10 μM,87%
same,toxicity,HeLa cells; genestein at 100 μM,toxic
same,interactions with EGCg on growth of HeLa cells,HeLa cells; higher genestein concentrations,no interactions were seen
same,interactions with 1 μM EGCg on growth of HeLa cells,"HeLa cells; low genestein concentrations, data not shown",additive
same,synergy with either vanillylamine or EGCg in the NADH oxidase assay,NADH oxidase,did not exhibit
